Measured values as given in patent publication US20180265463A1, “Vitamin D3 Derivatives and Pharmaceutical Use Thereof” (Kyoto University, priority 2014, published 2018).
Entries after “also recorded” stand apart in the source; their conditions may differ. Where two headings read alike, the source gives them in different places.

Columns and labels:
Format in all cases: cell-based, Chinese hamster
SREBP-2 = assay: Western-blot analysis of SREBP-2 in CHO-K1 cells; conditions: 5 μM; for levels of the mature form of SREBP versus DMSO: 16 h, CHO-K1 cells (FIG. 7, FIG. 8)
Experimental: CHO-K1 cells were treated with DMSO alone or each molecule (5 μM) for 18 h. The levels of precursor and mature forms of SREBP-2 were analyzed by Western-blot. Western-blots of actin are shown in lower panel as a loading control.
CHO-K1 cells were treated with DMSO alone or each molecule (5 μM) for 16 h. The levels of precursor and mature forms of SREBP-2 were analyzed by Western-blot. Western-blots of actin are shown in lower panel as a loading control.
On day 0, CHO-K1 cells were added to 6-well plates at 3.0×10^5 cells per well in medium A. On day 1, the cells were washed with PBS, and then incubated in medium B in the absence or presence of specific test compounds (5 μM). After 16 h of incubation, the cells were washed three times with cold PBS, and lysed with a buffer A (50 mM Tris-HCl (pH 7.5), 150 mM NaCl, 1% (v/v) Nonidet P40, 0.5% (w/v) sodium deoxycholate, 8 M urea, and protease inhibitor cocktail (Nacalai)). The cell lysate were passed 16 times through a 25 G needle and centrifuged at 7,000 g at 4° C. for 10 min. The supernatants were transferred to new tubes, and the pellets were extracted with a buffer A. The resulting buffer was centrifuged at 7,000 g at 4° C. for 10 min, and the supernatants were combined to the previous ones. The resulting lysate was mixed with 0.20 volume of 6×SDS sample buffer (Nacalai) and incubated at room temperature for 30 min. The samples were separated on a 10% SDS-PAGE gel and blotted, using mouse monoclonal antibodies against SREBP-2 (IgG-7D4), SCAP (IgG-9D5), c-Myc (IgG1-MC045), and actin (AC-40). The specific bands were visualized using enhanced chemiluminescence (ECL Prime Western Blotting Detection Reagent, GE Healthcare) on an ImageQuant LAS 500 (GE Healthcare).

SREBP = assay: SRE-driven luciferase reporter assay of SREBP activation; conditions: luciferase reporter in CHO-K1 cells, lipid-depleted medium, 20-24 h, normalized to β-galactosidase, averages of three independent experiments, read-out: IC50 (μM), inhibitory effect on the activation of SREBP
Experimental: The transfected cells were treated with DMSO alone, sterols (10 μg/mL cholesterol and 1.0 μg/mL 25-HC), or varied concentrations of 25(OH)D in a medium containing lipid-free serum. Luciferase activity was measured after 20 h incubation, and the data were normalized to β-galactosidase activity. Values are the mean±SD of three independent experiments.
The molecules in a chemical library which consists of 280 endogenous lipid related molecules were screened for their ability to inhibit the expression of a luciferase reporter gene. In this gene, three repeats of sterol regulatory elements (SREs) control expression of luciferase. Lipid depletion activates SREBPs, which bind to the SRE domain and work as transcription factors to express luciferase. The SREBP-responsive reporter construct was co-transfected into Chinese hamster ovary K1 (CHO-K1) cells, along with a control β-galactosidase (β-gal) reporter gene. A constitutively active actin promoter in the reporter gene drives the expression of β-gal. The levels of luciferase expression from the SREBP-responsive reporter gene were normalized to the levels of β-gal expression.
CHO-K1 cells were maintained in a medium A (1:1 mixture of Ham's F-12 medium and Dulbecco's modified Eagle medium, supplemented with 100 units/mL penicillin, 100 μg/mL streptomycin sulfate, and 5% (v/v) fetal bovine serum) at 37° C. under humidified 5% CO2.
On day 0, CHO-K1 cells were added to 96-well plates at 1.0×10^4 cells per well in medium A. On day 1, the cells were co-transfected with an SRE-1-driven luciferase reporter construct (pSRE-Luc) and pAc-β-gal at a 20/1 ratio, using FuGENE(Registered trademark) HD transfection reagent (Promega), according to the manufacturer's protocol. After 8-12 h of incubation, the cells were washed with PBS buffer, then incubated in medium B containing the specific test compounds. […] After 20-24 h of incubation, the cells in each well were lysed by freeze-thaw with Reporter Lysis Buffer (Promega), and aliquots were used to measure luciferase and β-galactosidase activities. Luciferase activity was measured using the Steady-Glo(Registered trademark) Luciferase Assay System (Promega), and β-galactosidase activity was measured using the β-galactosidase Enzyme Assay System (Promega). Luciferase activity was normalized to β-galactosidase activity.

[1] = tested on: SREBP-2 fragment fused to PLAP (PLAP-BP2513-1141); assay: PLAP-BP assay (secreted alkaline phosphatase reporter of SREBP translocation and processing); conditions: VD derivatives 10 μM, 20 h, CHO-K1 co-transfected with PLAP-BP2 and SCAP; average of two experiments

Molecule	levels of the mature form of SREBP versus DMSO (SREBP-2)	IC50 (SREBP) [µM]	IC50 (SREBP; Cricetulus griseus) [µM]	also measured
C=C1C(=CC=C2CCCC3(C)C2CCC3C(C)CCCC(C)C)CC(O)CC1NC(C)=O (stereo not drawn) [Compound 22b, 1β-NHAc VD3]	lower than that of DMSO	3.56		
Cc1ccc(S(=O)(=O)N[C@@H]2C/C(=C\C=C3/CCC[C@]4(C)[C@@H]([C@H](C)CCCC(C)(C)O)CC[C@@H]34)C[C@@H](O)C2)cc1 [Compound 85, 19-Nor 1α-NHTs-3β-OH VD3]			0.52	
C[C@H](CCCC(C)(C)O)[C@H]1CC[C@H]2/C(=C/C=C3/C[C@@H](O)C[C@H](N4C(=O)c5ccccc5C4=O)C3)CCC[C@]12C [Compound 87, 19-Nor 1α-NPhth-3β-OH VD3]			0.52	
C=C1/C(=C\C=C2/CCC[C@]3(C)[C@@H]([C@H](C)CCCC(C)(C)O)CC[C@@H]23)C[C@@H](O)C[C@@H]1O [1,25(OH)2D, 1α,25-dihydroxyvitamin D3]				secretion of PLAP [1]: inhibited the secretion of PLAP to a greater extent than sterol; also recorded: caused a greater decrease in PLAP secretion than did cholesterol
1α-OH-3α-NHPhth VD3 [Compound 77]		1.55		
C=C1/C(=C\C=C2/CCC[C@]3(C)[C@@H]([C@H](C)CCCC(C)(C)O)CC[C@@H]23)C[C@@H](O)C[C@@H]1NC(=O)c1ccc(Br)cc1 [Compound 39, 1α-NH(p-BrBz) VD3]	lower than that of DMSO		0.97	
1α-NH(p-CF3Bz) VD3 [Compound 38]	lower than that of DMSO	1.76		
19-Nor 1β-NHTs-3β-OH VD3 [Compound 72]		1.69		
C=C1C(=CC=C2CCCC3(C)C2CCC3C(C)CCCC(C)C)CC(O)CC1NS(=O)(=O)c1ccc(C)cc1 (stereo not drawn) [Compound 32, 1α-NHTs VD3]	lower than that of DMSO	0.61		
1α-OH-3α-NHTs VD3 [Compound 73]		2.71		
C[C@H](CCCC(C)(C)O)[C@H]1CC[C@H]2/C(=C/C=C3/C[C@@H](O)C[C@H](NC(=O)c4ccc(SC(F)(F)F)cc4)C3)CCC[C@]12C [Compound 86, 19-Nor 1α-NH(p-SCF3Bz)-3β-OH VD3]			0.53	
C[C@H](CCCC(C)(C)O)[C@H]1CC[C@H]2/C(=C/C=C3/C[C@@H](O)C[C@H](NC(=O)C(F)(F)F)C3)CCC[C@]12C [Compound 90, 19-Nor 1α-NH(Trifluoroacetyl)-3β-OH VD3]			0.83	
19-Nor 1β-NH(p-SCF3Bz)-3β-OH VD3 [Compound 74]		1.11		
C=C1C(=CC=C2CCCC3(C)C2CCC3C(C)CCCC(C)C)CC(O)CC1NC(=O)OCc1ccccc1 (stereo not drawn) [Compound 36, 1α-NHCbz VD3]	lower than that of DMSO	1.38		
C[C@H](CCCC(C)(C)O)[C@H]1CC[C@H]2[C@@H]3CC=C4C[C@@H](O)CC[C@]4(C)[C@H]3CC[C@]12C [Compound 25-HC, 25-hydroxycholesterol, reference compound]				level of mature form of SREBP (SREBP-2; 18 h, CHO-K1 cells (FIG. 3)): disappeared; level of precursor form of SREBP (SREBP-2; 18 h, CHO-K1 cells (FIG. 3)): accumulated
C=C1C(=CC=C2CCCC3(C)C2CCC3C(C)CCCC(C)C)CC(O)CC1NC(=O)OC(C)(C)C (stereo not drawn) [Compound 18a, 1α-NHBoc VD3]		0.82		
C=C1/C(=C\C=C2/CCC[C@]3(C)[C@@H]([C@H](C)CCCC(C)(C)O)CC[C@@H]23)C[C@@H](O)C[C@@H]1NCC1CC1 [Compound 49, 1α-NH(Cyclopropylmethyl) VD3]			16	
C[C@H](CCCC(C)(C)O)[C@H]1CC[C@H]2/C(=C/C=C3/C[C@@H](O)C[C@H](NS(C)(=O)=O)C3)CCC[C@]12C [Compound 89, 19-Nor 1α-NHMs-3β-OH VD3]			3.34	
C[C@H](CCCC(C)(C)O)[C@H]1CC[C@H]2/C(=C/C=C3/C[C@@H](O)C[C@H](NS(=O)(=O)c4cccc5c(N(C)C)cccc45)C3)CCC[C@]12C [Compound 91, 19-Nor 1α-NHDns-3β-OH VD3]			1.17	
C[C@H](CCCC(C)(C)O)[C@H]1CC[C@H]2/C(=C/C=C3/C[C@@H](O)C[C@H](F)C3)CCC[C@]12C [Compound 98, 19-Nor 1α-F-3β-OH VD3]			1.59	
1α-NHNs VD3 [Compound 28]	lower than that of DMSO	0.68		
19-Nor 1β-NPhth-3β-OH VD3 [Compound 76]		2.05		
C=C1C(=CC=C2CCCC3(C)C2CCC3C(C)CCCC(C)C)CC(O)CC1NC(C)=O (stereo not drawn) [Compound 22a, 1α-NHAc VD3]	lower than that of DMSO	3.24		
